Tested on: Rattus norvegicus
Assay: Hepatobiliary metabolism in UGT1A1-deficient Gunn rat measured as biliary excretion at 0.25 mg, iv within 240 mins
Assay type: ADME, organism-based, Bile
Settings: in vivo, 4 h

Activity: 93%
Structure (SMILES): CCC1=C(C)C(=O)N/C1=C\c1[nH]c(C#Cc2[nH]c(/C=C3/NC(=O)C(C)=C3CC)c(C)c2CCC(=O)O)c(CCC(=O)O)c1C

— ChEMBL document CHEMBL1141400, “Influence of conformation and intramolecular hydrogen bonding on the acyl glucuronidation and biliary excretion of acetylenic bis-dipyrrinones related to bilirubin” (J Med Chem, 2007)
